Patent US6476252B1, “Flavorant compositions” (Givaudan Roure (International) SA, priority 1997, dated 2002)

How the values were obtained:
oral cavity = test: Expert panel evaluation in foods, beverages and consumer healthcare products; type: in vivo, human; details: for character of mayonnaise base / character of sour cream / character of vegetable dip: 500 ppm compound; for character of toothpaste base: peppermint flavored toothpaste base; for character of sour cream: regular fat sour cream; for character of vegetable dip: vegetable soup mix with regular fat sour cream
Protocol: Mouthwash base was prepared by mixing 0.08 parts mouthwash flavor (commercially available from Givaudan Roure Flavors Ltd.), 0.5 parts Pluronic F-127, 0.5 parts polysorbate 20, 0.35 parts sodium lauryl sulfate, 5 parts glycerine, 0.015 parts sodium saccharin and 93.555 parts water. […] Toothpaste base (Opaque 13/02-5F) was flavored with peppermint flavor (Givaudan Roure peppermint flavor 10570-34) at 0.5% by weight. […] Mayonnaise base was prepared by mixing 59.8 parts whole egg, 24 parts vinegar (white, 5% acidity), 1.3 parts mustard, 2 parts sugar, 1 part salt and 219 parts vegetable oil. […] An onion dip was prepared by mixing a commercial package of onion soup mix (Lipton) with plain, regular fat sour cream and 1000 ppm of compound 9 as described and prepared according to example 9. […] 2.5 parts Maltrin M-10 (commercially available) was mixed with 0.05 parts pizza flavor (SNE Pizza Flavor 810841). 50 parts potato chips ([…]) were placed on a paper plate then microwaved for 30-60 seconds until surface oil glistened. […] A chewing gum was prepared according to methods known to those skilled in the art.

fungi = details: A. M. Janssen et al., Planta Medica 1985; cited from earlier work
tumor = details: H. Itokawa et al., Planta Medica (1987); cited from earlier work
xanthin oxidase = details: T. Noro et al., Chem. Pharm. Bull. (1988); cited from earlier work
Epstein-Barr virus = details: A. Kondo et al., Biosci. Biotech. Biochem. (1993); cited from earlier work
[1] = S. Mitsui et al., Chem. Pharm. Bull. (1976); cited from earlier work

Compound	sensation imparted by mouthwash base (oral cavity; 100 ppm compound)	character of mayonnaise base (oral cavity)	character of toothpaste base (oral cavity; 100 ppm compound)	character of sour cream (oral cavity)	character of vegetable dip (oral cavity)	further results
C=CC(OC(=O)CC)c1ccc(OC(=O)CC)c(OC)c1 (racemic) [Compound 3, (rac)-propionic acid 1-(4-propionoxy-3-methoxyphenyl)-allyl ester]	warm/hot, spicy and pungent sensation					
C=CC(OC(C)=O)c1ccc(OC(C)=O)c(OC)c1 (racemic) [Compound 2, (rac)-acetic acid 1-(4-acetoxy-3-methoxphenyl)-allyl ester]						anti-fungal activity (fungi): anti-fungal activity; anti-tumor activity (tumor): anti-tumor activity; inhibition of xanthin oxidase (xanthin oxidase): inhibit xanthin oxidase; character of orange flavored chewing gum (oral cavity; chewing gum, 1 g compound in the batch): warm/hot, peppery and pungent character, again without any lingering effect
C=CCC(OC(C)=O)c1ccc(OC(C)=O)cc1 (racemic) [Compound 9, (rac)-acetic acid 1-(4-acetoxyphenyl)-3-butenyl ester]	warm/hot, spicy and pungent sensation	warm/hot, spicy and pungent character	warm/hot, spicy and pungent character	warm/hot, spicy and pungent character without a lingering effect	warm/hot, peppery and pungent character without any lingering effect	character of onion dip (oral cavity; onion soup mix with regular fat sour cream, 1000 ppm compound): warm/hot, peppery and pungent character without a lingering effect
C=CC(OC(=O)CC)c1ccc(OC(=O)CC)cc1 (racemic) [Compound 4, (rac)-propionic acid 1-(4-propionoxy-phenyl)-allyl ester]	warm/hot, spicy and pungent sensation					
CCC(OC(C)=O)c1ccc(OC(C)=O)cc1 (racemic) [Compound 6, (rac-)-acetic acid 1-(4-acetoxy-phenyl)-propyl ester]	warm/hot, spicy and pungent sensation	warm/hot, spicy and pungent character	warm/hot, spicy and pungent character	warm/hot, spicy and pungent character without a lingering effect	warm/hot, peppery and pungent character without any lingering effect	character of pizza snack (potato chips) (oral cavity; potato chips with pizza flavor, dusted with 1000 ppm compound): warm/hot, peppery and pungent character
C=CC(OC(C)=O)c1ccc(OC(C)=O)cc1 (racemic) [Compound 1, (rac)-acetic acid 1-(4-acetoxy-phenyl)-allyl ester]	warm/hot, spicy and pungent sensation	warm/hot, spicy and pungent character	warm/hot, spicy and pungent character	warm/hot, spicy and pungent character without a lingering effect	warm/hot, peppery and pungent character without any lingering effect	anti-fungal activity (fungi): anti-fungal activity; inhibition of tumor promoter-induced Epstein-Barr virus activation (Epstein-Barr virus): potent inhibitor; anti-tumor activity (tumor): anti-tumor activity; anti-ulcer activity [1]: anti-ulcer activity; inhibition of xanthin oxidase (xanthin oxidase): inhibit xanthin oxidase
C=CC(OC(=O)C(C)C)c1ccc(OC(=O)C(C)C)cc1 (racemic) [Compound 5, (rac)-isobutyric acid 1-(4-isobutyryloxy-phenyl)-allyl ester]	warm/hot, spicy and pungent sensation					
CCC(OC(C)=O)c1ccc(OC(C)=O)c(OC)c1 (racemic) [Compound 7, (rac)-acetic acid 1-(4-acetoxy-3-methoxy-phenyl)-propyl ester]	warm/hot, spicy and pungent sensation	warm/hot, spicy and pungent character	warm/hot, spicy and pungent character	warm/hot, spicy and pungent character without a lingering effect	warm/hot, peppery and pungent character without any lingering effect	flavor of cordial base (oral cavity; 50 Proof cordial base with cinnamon flavor 0.2% by weight, 100 ppm compound): enhanced warm /hot, pungent flavor
